Experimental data: US20120282296A1, “METHODS FOR IMPROVING THE DESIGN, BIOAVAILABILITY, AND EFFICACY OF DIRECTED SEQUENCE POLYMER COMPOSITIONS VIA SERUM PROTEIN-BASED DETECTION OF DIRECTED SEQUENCE POLYMER COMPOSITIONS” (ARES TRADING SA, priority 2009, published 2012)

What was measured:
[1] = system: CCL22; test: Acute release of CCL22 (MDC) in serum or plasma after SC YEAK administration in mice; type: in vivo
[2] = YEAK in serum of mice after IV or SC dosing, detected by anti-YEAK ELISA; type: in vivo
[3] = system: monocyte cell line RAW264.7; test: CCL22 release bioassay in the monocyte cell line RAW264.7; type: cell-based
From the text: Following synthesis of different DSP compositions, for example by solid phase synthesis or by solution phase synthesis, the individual lots or batches made by the same manufacturing process, and individual batches of mixtures manufactured by different processes may be tested and compared for variation using bioassays. Depending on the indication of the DSP composition, appropriate bioassays include the release of CCL22 by the monocyte cell line RAW264.7, ex vivo proliferation assays, and measuring the binding of serum proteins to peptides in the DSP composition. Using these bioassays, one may determine subsets of peptides or even individual peptides that are present in any given process or lot. Processes and lots of DSP compositions will be compared to determine whether the same subsets of peptides and/or types of peptides are consistently represented across the different processes and lots.

[4] = system: Ig fraction of rabbit polyserum; test: ELISA with Ig fraction of rabbit polyserum; type: binding
[5] = various species, including man; cited from earlier work
[6] = mice dosed IV 4 mg/kg or SC 21 mg/kg, route for this value not stated

| maximum serum concentration [2, 6] [ng/mL] | time of maximum serum concentration post dosing [2, 6] | detection in serum at 2 hours post-dosing ([2]; mice, 2 hours post-dosing) | Substance | relation between dose administered SC and observed maximum CCL22 plasma concentration [1] | CCL22 release by RAW264.7 cells [3] | interaction with / recognition by Ig fraction of rabbit polyserum [4] | persistence in serum after subcutaneous administration [5] |
| --- | --- | --- | --- | --- | --- | --- | --- |
| 1800 | around 15 min | still detected | glatiramer acetate [Copaxone] | linear correlation | released CCL22 in a concentration dependent manner | interacts strongly | can be detected in serum of various species, including man, several hours after subcutaneous administration |
|  |  |  | plovamer [PI-2301] |  |  |  | can be detected in serum of various species, including man, several hours after subcutaneous administration |
